Measurements as given in ChEMBL document CHEMBL1201862, “PubChem BioAssay data set” (2004).
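Growth conditions: 96-well plates. Treatment: test compound, 48 hours, 5 concentrations. Analysis: linear interpolation between bracketing concentrations; unreached endpoints set to highest concentration. The concentration for 50% growth inhibition is given as GI50.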 Calls of active or inactive are those of the source. Cut-off read from the data, not from the text of the source: active = GI50 up to about 1.1 µM and inactive = higher.

Experiments:
Assay in all cases: NCI anticancer screen, dose series, 48 h
CAKI-1 = system: CAKI-1
DU-145 = system: DU-145
HCT-116 = system: HCT-116
IGROV-1 = system: IGROV-1
KM12 = system: KM12
M14 = system: M14
MDA-MB-231 = system: MDA-MB-231
NCI-H460 = system: NCI-H460
OVCAR-5 = system: OVCAR-5
RPMI-8226 = system: RPMI-8226
RXF 393 = system: RXF 393
SF-268 = system: SF-268
SF-539 = system: SF-539
SK-OV-3 = system: SK-OV-3
SN12C = system: SN12C
U-251 = system: U-251
UACC-257 = system: UACC-257
UO-31 = system: UO-31
CCRF-CEM = system: CCRF-CEM
HL-60 = system: HL-60

SMILES	GI50 (CAKI-1)	GI50 (DU-145)	GI50 (HCT-116)	GI50 (IGROV-1)	GI50 (KM12)	GI50 (M14)	GI50 (MDA-MB-231)	GI50 (NCI-H460)	GI50 (OVCAR-5)	GI50 (RPMI-8226)	GI50 (RXF 393)	GI50 (SF-268)	GI50 (SF-539)	GI50 (SK-OV-3)	GI50 (SN12C)	GI50 (U-251)	GI50 (UACC-257)	GI50 (UO-31)	GI50 (CCRF-CEM)	GI50 (HL-60)
O=C(O)c1ccccc1-c1ccccc1C(=O)Nc1ccc2c(c1)Cc1ccccc1-2	51.9 µM (inactive)	38.8 µM (inactive)	18 µM (inactive)	49.3 µM (inactive)	32.4 µM (inactive)	21.6 µM (inactive)	60.5 µM (inactive)	19.2 µM (inactive)	21.9 µM (inactive)	23.4 µM (inactive)	46.7 µM (inactive)	43.1 µM (inactive)	21.9 µM (inactive)	59.4 µM (inactive)	29.3 µM (inactive)	28.6 µM (inactive)	28.3 µM (inactive)	30 µM (inactive)		
COC(=O)C1C(=O)N(C)C(=O)N2CCCC12 (centres undefined)	> 100 µM (inactive)	> 100 µM (inactive)		> 100 µM (inactive)	> 100 µM (inactive)	> 100 µM (inactive)	> 100 µM (inactive)	> 100 µM (inactive)	> 100 µM (inactive)	> 100 µM (inactive)	71.8 µM (inactive)	> 100 µM (inactive)	> 100 µM (inactive)	> 100 µM (inactive)		> 100 µM (inactive)	> 100 µM (inactive)	> 100 µM (inactive)	> 100 µM (inactive)	> 100 µM (inactive)
CCN1CC2=C(NC(=S)NC2c2cc(OC)c(OC)c(OC)c2)/C(=C/c2cc(OC)c(OC)c(OC)c2)C1 (centres undefined)	19.4 µM (inactive)	33.3 µM (inactive)	27.7 µM (inactive)	24.4 µM (inactive)	98.6 µM (inactive)	16.6 µM (inactive)	34.1 µM (inactive)	46.8 µM (inactive)	14.4 µM (inactive)	14.1 µM (inactive)	33 µM (inactive)	6.31 µM (inactive)		> 100 µM (inactive)		45.1 µM (inactive)	59 µM (inactive)	20.5 µM (inactive)	37.4 µM (inactive)	19.5 µM (inactive)
N/C(=N\c1cccc(Cl)c1)c1ccccc1N	> 100 µM (inactive)	> 100 µM (inactive)	> 100 µM (inactive)	> 100 µM (inactive)	> 100 µM (inactive)	> 100 µM (inactive)	> 100 µM (inactive)	> 100 µM (inactive)	> 100 µM (inactive)	> 100 µM (inactive)	> 100 µM (inactive)	> 100 µM (inactive)		> 100 µM (inactive)		> 100 µM (inactive)	> 100 µM (inactive)	> 100 µM (inactive)		> 100 µM (inactive)
COc1ccc2c(-c3csc(-c4c[nH]c5ccc(Br)cc45)n3)c[nH]c2c1	85.7 µM (inactive)	> 100 µM (inactive)	31.3 µM (inactive)	81.5 µM (inactive)	43.6 µM (inactive)	> 100 µM (inactive)	13.9 µM (inactive)	23.2 µM (inactive)	42.8 µM (inactive)	27.1 µM (inactive)	11.9 µM (inactive)	25.9 µM (inactive)			58.1 µM (inactive)	25.1 µM (inactive)	88.9 µM (inactive)	> 100 µM (inactive)	27.7 µM (inactive)	
Oc1nc2c(c(-c3cccc(Cl)c3)n1)COC/C2=C\c1cccc(Cl)c1	> 100 µM (inactive)	> 100 µM (inactive)	> 100 µM (inactive)	> 100 µM (inactive)	> 100 µM (inactive)	> 100 µM (inactive)	> 100 µM (inactive)	> 100 µM (inactive)	> 100 µM (inactive)	69.7 µM (inactive)	> 100 µM (inactive)	> 100 µM (inactive)	> 100 µM (inactive)	> 100 µM (inactive)	> 100 µM (inactive)	> 100 µM (inactive)	> 100 µM (inactive)	> 100 µM (inactive)	64.4 µM (inactive)	
O=C(OCC1CCCN2CCCCC12)c1cccnc1 (centres undefined)	> 100 µM (inactive)	> 100 µM (inactive)	> 100 µM (inactive)		> 100 µM (inactive)		> 100 µM (inactive)	> 100 µM (inactive)		> 100 µM (inactive)	> 100 µM (inactive)	> 100 µM (inactive)	> 100 µM (inactive)	> 100 µM (inactive)	> 100 µM (inactive)	> 100 µM (inactive)	> 100 µM (inactive)	> 100 µM (inactive)	> 100 µM (inactive)	> 100 µM (inactive)
O=C(Nc1nc(C23CC4CC(CC(C4)C2)C3)cs1)c1cc2ccccc2oc1=O	> 100 µM (inactive)	> 100 µM (inactive)	> 100 µM (inactive)	> 100 µM (inactive)	> 100 µM (inactive)		> 100 µM (inactive)	> 100 µM (inactive)	> 100 µM (inactive)	> 100 µM (inactive)	> 100 µM (inactive)	> 100 µM (inactive)	> 100 µM (inactive)		> 100 µM (inactive)	> 100 µM (inactive)	> 100 µM (inactive)	> 100 µM (inactive)	> 100 µM (inactive)	> 100 µM (inactive)
CC1(C)N=C(N)N=C(N)N1c1cccc(CSc2ccccc2)c1	23.6 µM (inactive)	0.592 µM (active)	0.0588 µM (active)	0.0301 µM (active)	0.718 µM (active)	0.346 µM (active)	> 100 µM (inactive)	0.0404 µM (active)	52.1 µM (inactive)	0.944 µM (active)	0.169 µM (active)	0.0363 µM (active)	0.461 µM (active)	95.3 µM (inactive)	0.0838 µM (active)	0.045 µM (active)	3.85 µM (inactive)	> 100 µM (inactive)		< 0.01 µM (active)
COC(=O)C[C@H]1[C@]2(C)C3=C(C)[C@H](c4ccoc4)CC3O[C@@H]2[C@@H]2OC(=O)[C@]3(C)CCC(=O)[C@@]1(C)[C@@H]23 (some centres undefined)	52.5 µM (inactive)	32.4 µM (inactive)	35.4 µM (inactive)	71.3 µM (inactive)	> 100 µM (inactive)	41.6 µM (inactive)	> 100 µM (inactive)	> 100 µM (inactive)	27.5 µM (inactive)	19.1 µM (inactive)	53.5 µM (inactive)	48 µM (inactive)		> 100 µM (inactive)	69.7 µM (inactive)	60.8 µM (inactive)	61 µM (inactive)	54.5 µM (inactive)	19.9 µM (inactive)	22.8 µM (inactive)
C[C@]12CC[C@H]3[C@@H](CC[C@]4(O)C[C@@H](O)CC[C@]34/C=N/O)[C@@]1(O)CC[C@@H]2C1=COC(=O)C1	0.0363 µM (active)	0.0637 µM (active)	0.0403 µM (active)	0.136 µM (active)	0.318 µM (active)	0.289 µM (active)	0.589 µM (active)	0.0403 µM (active)	0.318 µM (active)	0.258 µM (active)	0.0318 µM (active)	0.0728 µM (active)	0.104 µM (active)	0.0436 µM (active)	0.251 µM (active)	0.212 µM (active)	0.299 µM (active)	0.112 µM (active)		0.131 µM (active)
CCCCCCCCCCCC[C@H](O)[C@H]1CC[C@H]([C@H](O)CCCC[C@H](O)CCCCC[C@@H](O)CC2=C[C@H](C)OC2=O)O1	6.24 µM (inactive)	9.42 µM (inactive)	1.76 µM (inactive)	3.98 µM (inactive)	3.51 µM (inactive)	3.45 µM (inactive)	1.88 µM (inactive)	3.04 µM (inactive)	17.7 µM (inactive)	> 10 µM (inactive)	16.6 µM (inactive)	3.33 µM (inactive)	15.3 µM (inactive)		5.83 µM (inactive)	13.8 µM (inactive)	0.407 µM (active)	1.5 µM (inactive)	1.71 µM (inactive)	2.15 µM (inactive)
CCN(CC)CCC(=O)c1ccc(Oc2ccc(Cl)cc2)cc1	23.3 µM (inactive)	21.6 µM (inactive)	17.6 µM (inactive)	20.4 µM (inactive)	14.4 µM (inactive)	15.1 µM (inactive)	14.5 µM (inactive)	14.7 µM (inactive)	16.2 µM (inactive)	3.82 µM (inactive)	22.3 µM (inactive)	16.7 µM (inactive)	24.8 µM (inactive)		17.4 µM (inactive)	16.9 µM (inactive)	14 µM (inactive)	18 µM (inactive)	19.5 µM (inactive)	21.1 µM (inactive)
COC(=O)C1=C(C(=O)OC)C2CCC1CC2=O (centres undefined)	> 100 µM (inactive)	> 100 µM (inactive)	> 100 µM (inactive)	> 100 µM (inactive)	65.6 µM (inactive)	> 100 µM (inactive)	> 100 µM (inactive)	> 100 µM (inactive)	> 100 µM (inactive)	> 100 µM (inactive)	> 100 µM (inactive)	> 100 µM (inactive)	> 100 µM (inactive)	> 100 µM (inactive)	> 100 µM (inactive)	> 100 µM (inactive)	> 100 µM (inactive)	55.1 µM (inactive)	31.3 µM (inactive)	
Cc1c([C@H](C)[C@@H]2NC[C@@H](C)C[C@H]2O)ccc2c1C[C@H]1[C@H]2CC=C2C[C@@H](O)CC[C@@]21C [VERATRAMINE]	26.6 µM (inactive)	27.6 µM (inactive)	14.3 µM (inactive)	16.1 µM (inactive)	14.5 µM (inactive)	15.7 µM (inactive)	16.4 µM (inactive)	16.9 µM (inactive)	17.8 µM (inactive)	3.29 µM (inactive)	17.5 µM (inactive)	27.7 µM (inactive)		23.8 µM (inactive)	20.4 µM (inactive)	14 µM (inactive)	13.2 µM (inactive)	14 µM (inactive)	16.1 µM (inactive)	
